Reference: ChEMBL document CHEMBL6078665, “Structural optimization of naturally derived Ar-turmerone, as novel neuroinflammation suppressors effective in an Alzheimer mouse model” (Bioorg Med Chem, 2025)
The source made the active and inactive calls. No cut-off for these calls is given here.

How the values were obtained:
[1] = system: BV-2; experiment: Anti-inflammatory activity against LPS-induced mouse BV-2 cells assessed as inhibition rate of LPS-induced […] production at 80 uM pretreated for 1 hr followed by challenged with LPS and measured after 24 hrs incubation by Griess assay; type: functional; settings: time 25 hrs
[2] = (§1) Cytotoxicity against LPS-induced mouse BV-2 cells assessed as cell survival at 80 uM measured after 24 hrs incubation by MTT assay; type: toxicity, cell-based; settings: LPS-induced BV-2 cells, read-out: Survival
[3] = system: Mus musculus; experiment: Anti-neuroinflammatory activity against LPS-induced spatial learning loss in C57BL/6 mouse model assessed as shortening of escape latency at 100 mg/kg, po measured up to 5 days by Morris water maze test; type: functional, organism-based; settings: time <= 5.0 day
[4] = system: BV-2; experiment: Anti-inflammatory activity against LPS-induced mouse BV-2 cells assessed as inhibition rate of LPS-induced TNFalpha production pretreated for 1 hr followed by challenged with LPS and measured after 24 hrs incubation by ELISA assay; type: functional, cell-based
[5] = system: BV-2; experiment: Anti-inflammatory activity against LPS-induced mouse BV-2 cells assessed as inhibition rate of LPS-induced NO production pretreated for 1 hr followed by challenged with LPS and measured after 24 hrs incubation by Griess assay; type: functional, cell-based
[6] = system: Mus musculus; experiment: Anti-neuroinflammatory activity against LPS-induced C57BL/6 mouse model assessed as reversal of LPS-induced TNFalpha increase in cortex at 100 mg/kg, po measured up to 5 days by ELISA kit; type: functional, organism-based; settings: time <= 5.0 day
[7] = system: Mus musculus; experiment: Anti-neuroinflammatory activity against LPS-induced C57BL/6 mouse model assessed as reversal of LPS-induced IL-1 beta increase in cortex at 100 mg/kg, po measured up to 5 days by ELISA kit; type: functional, organism-based; settings: time <= 5.0 day
[8] = system: Mus musculus; experiment: Anti-neuroinflammatory activity against LPS-induced C57BL/6 mouse model assessed as reversal of LPS-induced IL-1 beta increase in hippocampal homogenate at 100 mg/kg, po measured up to 5 days by ELISA kit; type: functional, organism-based; settings: time <= 5.0 day
[9] = system: BV-2; experiment: Anti-inflammatory activity against LPS-induced mouse BV-2 cells assessed as inhibition rate of LPS-induced IL-1beta production pretreated for 1 hr followed by challenged with LPS and measured after 24 hrs incubation by ELISA assay; type: functional, cell-based
[10] = system: Mus musculus; experiment: Anti-neuroinflammatory activity against LPS-induced spatial learning in C57BL/6 mouse model assessed as swimming pathway at 100 mg/kg, po measured up to 5 days by Morris water maze test; type: functional, organism-based; settings: time <= 5.0 day
[11] = system: Mus musculus; experiment: Anti-neuroinflammatory activity against LPS-induced C57BL/6 mouse model assessed as reversal of LPS-induced TNFalpha increase in hippocampal homogenate at 100 mg/kg, po measured up to 5 days by ELISA kit; type: functional, organism-based; settings: time <= 5.0 day
[12] = system: BV-2; experiment: as §1; type: toxicity, cell-based; settings: bv-2, 24 h, 80 µM
[13] = system: Mus musculus; experiment: Anti-neuroinflammatory activity against LPS-induced reference memory loss in C57BL/6 mouse model assessed as increase in time spent in target quadrant at 100 mg/kg, po measured up to 5 days by reference memory (probe trial) test; type: functional, organism-based; settings: time <= 5.0 day
[14] = system: Mus musculus; experiment: Anti-neuroinflammatory activity against LPS-induced reference memory loss in C57BL/6 mouse model assessed as increase in number of times cross the target quadrant at 100 mg/kg, po measured up to 5 days by reference memory (probe trial) test; type: functional, organism-based; settings: time <= 5.0 day
[15] = system: Mus musculus; experiment: Anti-neuroinflammatory activity against LPS-induced neuronal damage C57BL/6 mouse model assessed as restoration of number of normal neuronal cells in hippocampus at 100 mg/kg, po measured up to 5 days by Nissl staining based assay; type: functional, organism-based; settings: time <= 5.0 day
[16] = system: Mus musculus; experiment: Anti-neuroinflammatory activity against LPS-induced neuronal damage C57BL/6 mouse model assessed as restoration of number of normal neuronal cells in cortex at 100 mg/kg, po measured up to 5 days by Nissl staining based assay; type: functional, organism-based; settings: time <= 5.0 day

CC(C)=CC(=O)NC(C)c1ccc(C(F)(F)F)cc1 (centres undefined)
inhibition at 80 µM [1]: 28% | viability at 24 h, 80 µM [2]: > 80%

CC(C)=CC(=O)NC(C)c1ccc(C)cc1 (centres undefined)
Activity [3]: Active | IC50 [4]: 27.5 µM | inhibition at 80 µM [1]: 79.8% | viability at 24 h, 80 µM [2]: > 80% | IC50 [5]: 17.3 µM | Activity [6]: Active | Activity [7]: Active | Activity [8]: Active | IC50 [9]: 14 µM | Activity [10]: Active | Activity [11]: Active

CC(C)=CC(=O)CC(C)c1ccccc1Cl (centres undefined)
inhibition at 80 µM [1]: 47.7% | viability at 24 h, 80 µM [2]: > 80%

CC(C)=CC(=O)NC(C)c1ccc(Cl)cc1 (centres undefined)
inhibition at 80 µM [1]: 38% | viability at 24 h, 80 µM [2]: > 80%

CC(C)=CC(=O)NC(C)c1ccc(-c2ccccc2)cc1 (centres undefined)
inhibition at 80 µM [1]: 16.9% | Activity [12]: Non-toxic

CC(C)=CC(=O)NC(c1ccccc1)c1ccc(C)cc1 (centres undefined)
Activity [3]: Active | IC50 [4]: 50.3 µM | inhibition at 80 µM [1]: 71% | viability at 24 h, 80 µM [2]: > 80% | IC50 [5]: 30.4 µM | Activity [8]: Active; Compound Exhibited Superior Effect Compared To Ar-Turmerone | IC50 [9]: 54.1 µM | Activity [10]: Active | Activity [11]: Active; Compound Exhibited Superior Effect Compared To Ar-Turmerone

CC(C)=CC(=O)OC(C)c1ccc2ccccc2c1 (centres undefined)
inhibition at 80 µM [1]: 7.97% | viability at 24 h, 80 µM [2]: > 80%

CC(C)=CC(=O)CC(c1ccc(-c2ccccc2)cc1)C(C)C (centres undefined)
IC50 [4]: 51.4 µM | inhibition at 80 µM [1]: 69.7% | Activity [12]: Non-toxic | IC50 [5]: 26.6 µM | IC50 [9]: 56.2 µM

CC(C)=CC(=O)CC(c1ccc(C)cc1)C(C)C (centres undefined)
IC50 [4]: 46.5 µM | inhibition at 80 µM [1]: 71% | viability at 24 h, 80 µM [2]: > 80% | IC50 [5]: 30.9 µM | IC50 [9]: 42.4 µM

CC(C)=CC(=O)CC(c1ccc(F)cc1)c1ccc(-c2ccccc2)cc1 (centres undefined)
inhibition at 80 µM [1]: 29.3% | Activity [12]: Non-toxic

CC(C)=CC(=O)OC(C)c1ccccc1 (centres undefined)
inhibition at 80 µM [1]: 24.9%

CC(C)=CC(=O)CC(C)c1ccc(C(F)(F)F)cc1 (centres undefined)
inhibition at 80 µM [1]: 26.8% | viability at 24 h, 80 µM [2]: > 80%

CCCCc1nc(-c2ccc(OCCCN(CC)CC)cc2)cn1-c1ccc(Oc2ccc(Cl)cc2)cc1
Activity [13]: Active | Activity [8]: Active | Activity [14]: Active | Activity [11]: Active

CC(C)=CC(=O)CC(c1ccc(C)cc1)c1ccc(F)cc1 (centres undefined)
inhibition at 80 µM [1]: 8.15% | viability at 24 h, 80 µM [2]: > 80%

CC(C)=CC(=O)C[C@H](C)c1ccc(C)cc1
IC50 [4]: 39.9 µM | viability at 24 h, 80 µM [2]: > 80% | IC50 [5]: 25.4 µM | Activity [15]: Active | Activity [8]: Active | IC50 [9]: 18.5 µM | Activity [16]: Active | Activity [11]: Active

CC(C)=CC(=O)CC(C)c1ccc(-c2ccccc2)cc1 (centres undefined)
inhibition at 80 µM [1]: 18.9% | Activity [12]: Non-toxic

CCCC(OC(=O)C=C(C)C)c1ccc(-c2ccccc2)cc1 (centres undefined)
inhibition at 80 µM [1]: 14.9% | viability at 24 h, 80 µM [2]: > 80%

CCCc1ccc(CNC(=O)C=C(C)C)cc1
IC50 [4]: 53.6 µM | inhibition at 80 µM [1]: 59.8% | viability at 24 h, 80 µM [2]: > 80% | IC50 [5]: 49.4 µM | IC50 [9]: 43.9 µM

CC(C)=CC(=O)CC(C)c1ccc(C)cc1 (racemic)
IC50 [4]: 42.5 µM | inhibition at 80 µM [1]: 81.5% | viability at 24 h, 80 µM [2]: > 80% | IC50 [5]: 30.2 µM | IC50 [9]: 19.7 µM

CC(C)=CC(=O)CC(c1ccc(F)cc1)c1ccc(C(F)(F)F)cc1 (centres undefined)
inhibition at 80 µM [1]: 19.1% | viability at 24 h, 80 µM [2]: > 80%

CC(C)=CC(=O)NC(C)c1ccccc1 (centres undefined)
inhibition at 80 µM [1]: 22.3%

CC(C)=CC(=O)OC(C)c1ccc(C)cc1 (centres undefined)
Activity [3]: Active | IC50 [4]: 28.5 µM | inhibition at 80 µM [1]: 64.5% | viability at 24 h, 80 µM [2]: > 80% | IC50 [5]: 42.5 µM | Activity [8]: Active | IC50 [9]: 34 µM | Activity [10]: Active | Activity [11]: Active

CC(C)=CC(=O)OC(C)c1ccc(C(F)(F)F)cc1 (centres undefined)
inhibition at 80 µM [1]: 28.2% | viability at 24 h, 80 µM [2]: > 80%

CC(C)=CC(=O)C[C@@H](C)c1ccc(C)cc1
IC50 [4]: 40.9 µM | IC50 [5]: 29.1 µM | IC50 [9]: 23.1 µM

CC(C)=CC(=O)NC(C)c1ccc2ccccc2c1 (centres undefined)
Activity [3]: Active | IC50 [4]: 24.5 µM | inhibition at 80 µM [1]: 60.1% | Activity [13]: Active | viability at 24 h, 80 µM [2]: > 80% | IC50 [5]: 44.2 µM | Activity [6]: Active | Activity [7]: Active | Activity [15]: Active; Compound Exhibited Superior Effect Compared To Ar-Turmerone And Ttp488 | Activity [8]: Active | IC50 [9]: 32.5 µM | Activity [16]: Active; Compound Exhibited Superior Effect Compared To Ar-Turmerone And Ttp488 | Activity [10]: Active | Activity [14]: Active | Activity [11]: Active

CC(C)=CC(=O)OC(C)c1ccc(Cl)cc1 (centres undefined)
inhibition at 80 µM [1]: 15.8% | viability at 24 h, 80 µM [2]: > 80%

CC(C)=CC(=O)OC(C)c1ccc(-c2ccccc2)cc1 (centres undefined)
inhibition at 80 µM [1]: 44.5% | viability at 24 h, 80 µM [2]: > 80%
